#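 The compound was tested at five concentrations on cells cultured in 96-well plates, with a 48-hour exposure period. Abbreviation: GI50, concentration required for 50% inhibition of growth.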 Active and inactive are the calls of the source. Rule as the data show it: active = GI50 up to about 1.1 µM and inactive = higher.
# How the values were obtained:
# Assay in all cases: inhibition of tumour cell growth, NCI panel, 48 h
# MOLT-4 = tested on: MOLT-4
# SW-620 = tested on: SW-620
# SF-295 = tested on: SF-295
# OVCAR-8 = tested on: OVCAR-8
# OVCAR-3 = tested on: OVCAR-3
# MDA-MB-231 = tested on: MDA-MB-231
# SN12C = tested on: SN12C
# HOP-62 = tested on: HOP-62
# RXF 393 = tested on: RXF 393
# UACC-257 = tested on: UACC-257
# K562 = tested on: K562
# UO-31 = tested on: UO-31
# HCT-116 = tested on: HCT-116
# CCRF-CEM = tested on: CCRF-CEM
# SK-MEL-2 = tested on: SK-MEL-2
# COLO 205 = tested on: COLO 205
# NCI-H23 = tested on: NCI-H23
# NCI/ADR-RES = tested on: NCI/ADR-RES
# A549 = tested on: A549
# LOX IMVI = tested on: LOX IMVI
# BT-549 = tested on: BT-549
# 786-0 = tested on: 786-0
# DU-145 = tested on: DU-145
# T47D = tested on: T47D
# CAKI-1 = tested on: CAKI-1
# Hs-578T = tested on: Hs-578T
# HOP-92 = tested on: HOP-92
# IGROV-1 = tested on: IGROV-1
# HT-29 = tested on: HT-29
# PC-3 = tested on: PC-3
# MCF7 = tested on: MCF7
# SK-MEL-5 = tested on: SK-MEL-5
# SK-MEL-28 = tested on: SK-MEL-28
# HL-60 = tested on: HL-60
# OVCAR-4 = tested on: OVCAR-4
# HCT-15 = tested on: HCT-15
# RPMI-8226 = tested on: RPMI-8226
# SNB-19 = tested on: SNB-19
# MDA-N = tested on: MDA-N
# NCI-H460 = tested on: NCI-H460
# UACC-62 = tested on: UACC-62
# OVCAR-5 = tested on: OVCAR-5
# ACHN = tested on: ACHN
# M14 = tested on: M14
# A498 = tested on: A498
# NCI-H226 = tested on: NCI-H226
# EKVX = tested on: EKVX
# NCI-H522 = tested on: NCI-H522
# MDA-MB-435 = tested on: MDA-MB-435
# U-251 = tested on: U-251
# KM12 = tested on: KM12
# TK-10 = tested on: TK-10
# SF-539 = tested on: SF-539
# SNB-75 = tested on: SNB-75
# HCC 2998 = tested on: HCC 2998
# SF-268 = tested on: SF-268
# Malme-3M = tested on: Malme-3M
compound,measurement,setting,value
O=[N+]([O-])c1ccc(C2c3c(O)nc(S)nc3Oc3nc(S)nc(O)c32)cc1,GI50,MOLT-4,> 100 µM (inactive)
same,GI50,SW-620,> 100 µM (inactive)
same,GI50,SF-295,> 100 µM (inactive)
same,GI50,OVCAR-8,> 100 µM (inactive)
same,GI50,OVCAR-3,> 100 µM (inactive)
same,GI50,MDA-MB-231,> 100 µM (inactive)
same,GI50,SN12C,> 100 µM (inactive)
same,GI50,HOP-62,> 100 µM (inactive)
same,GI50,RXF 393,> 100 µM (inactive)
same,GI50,UACC-257,> 100 µM (inactive)
same,GI50,K562,> 100 µM (inactive)
same,GI50,UO-31,> 100 µM (inactive)
same,GI50,HCT-116,> 100 µM (inactive)
same,GI50,CCRF-CEM,> 100 µM (inactive)
same,GI50,SK-MEL-2,> 100 µM (inactive)
same,GI50,COLO 205,> 100 µM (inactive)
same,GI50,NCI-H23,> 100 µM (inactive)
same,GI50,NCI/ADR-RES,> 100 µM (inactive)
same,GI50,A549,> 100 µM (inactive)
same,GI50,LOX IMVI,> 100 µM (inactive)
same,GI50,BT-549,> 100 µM (inactive)
same,GI50,786-0,> 100 µM (inactive)
same,GI50,DU-145,> 100 µM (inactive)
same,GI50,T47D,> 100 µM (inactive)
same,GI50,CAKI-1,> 100 µM (inactive)
same,GI50,Hs-578T,> 100 µM (inactive)
same,GI50,HOP-92,> 100 µM (inactive)
same,GI50,IGROV-1,> 100 µM (inactive)
same,GI50,HT-29,> 100 µM (inactive)
same,GI50,PC-3,> 100 µM (inactive)
same,GI50,MCF7,> 100 µM (inactive)
same,GI50,SK-MEL-5,> 100 µM (inactive)
same,GI50,SK-MEL-28,> 100 µM (inactive)
same,GI50,HL-60,> 100 µM (inactive)
same,GI50,OVCAR-4,> 100 µM (inactive)
same,GI50,HCT-15,> 100 µM
same,GI50,RPMI-8226,> 100 µM (inactive)
same,GI50,SNB-19,> 100 µM (inactive)
same,GI50,MDA-N,> 100 µM (inactive)
same,GI50,NCI-H460,> 100 µM (inactive)
same,GI50,UACC-62,> 100 µM (inactive)
same,GI50,OVCAR-5,> 100 µM (inactive)
same,GI50,ACHN,> 100 µM (inactive)
same,GI50,M14,> 100 µM (inactive)
same,GI50,A498,> 100 µM (inactive)
same,GI50,NCI-H226,> 100 µM (inactive)
same,GI50,EKVX,> 100 µM (inactive)
same,GI50,NCI-H522,> 100 µM (inactive)
same,GI50,MDA-MB-435,> 100 µM (inactive)
same,GI50,U-251,> 100 µM (inactive)
same,GI50,KM12,> 100 µM (inactive)
same,GI50,TK-10,> 100 µM (inactive)
O=S(=O)(c1cc(Cl)ccc1Cl)N1CCN(S(=O)(=O)c2cc(Cl)ccc2Cl)CC1,GI50,MOLT-4,> 100 µM (inactive)
same,GI50,SW-620,> 100 µM (inactive)
same,GI50,SF-295,> 100 µM (inactive)
same,GI50,OVCAR-8,> 100 µM (inactive)
same,GI50,OVCAR-3,> 100 µM (inactive)
same,GI50,MDA-MB-231,> 100 µM (inactive)
same,GI50,SN12C,> 100 µM (inactive)
same,GI50,HOP-62,> 100 µM (inactive)
same,GI50,RXF 393,> 100 µM (inactive)
same,GI50,UACC-257,> 100 µM (inactive)
same,GI50,K562,> 100 µM (inactive)
same,GI50,UO-31,> 100 µM (inactive)
same,GI50,HCT-116,> 100 µM (inactive)
same,GI50,SK-MEL-2,0.403 µM (active)
same,GI50,NCI-H23,4.86 µM (inactive)
same,GI50,NCI/ADR-RES,> 100 µM (inactive)
same,GI50,A549,> 100 µM (inactive)
same,GI50,SF-539,> 100 µM (inactive)
same,GI50,BT-549,> 100 µM (inactive)
same,GI50,786-0,> 100 µM (inactive)
same,GI50,DU-145,16.1 µM (inactive)
same,GI50,T47D,> 100 µM (inactive)
same,GI50,CAKI-1,> 100 µM (inactive)
same,GI50,Hs-578T,19.8 µM (inactive)
same,GI50,HOP-92,> 100 µM (inactive)
same,GI50,IGROV-1,> 100 µM (inactive)
same,GI50,HT-29,> 100 µM (inactive)
same,GI50,SNB-75,> 100 µM (inactive)
same,GI50,PC-3,> 100 µM (inactive)
same,GI50,MCF7,> 100 µM (inactive)
same,GI50,SK-MEL-5,> 100 µM (inactive)
same,GI50,HCC 2998,> 100 µM (inactive)
same,GI50,SK-MEL-28,> 100 µM (inactive)
same,GI50,HCT-15,> 100 µM
same,GI50,SNB-19,> 100 µM (inactive)
same,GI50,MDA-N,> 100 µM (inactive)
same,GI50,NCI-H460,> 100 µM (inactive)
same,GI50,UACC-62,0.489 µM (active)
same,GI50,OVCAR-5,16.3 µM (inactive)
same,GI50,ACHN,> 100 µM (inactive)
same,GI50,M14,> 100 µM (inactive)
same,GI50,A498,> 100 µM (inactive)
same,GI50,NCI-H226,> 100 µM (inactive)
same,GI50,NCI-H522,> 100 µM (inactive)
same,GI50,MDA-MB-435,> 100 µM (inactive)
same,GI50,SF-268,> 100 µM (inactive)
same,GI50,U-251,> 100 µM (inactive)
same,GI50,Malme-3M,> 100 µM (inactive)
same,GI50,KM12,> 100 µM (inactive)
same,GI50,TK-10,> 100 µM (inactive)

# Reference: ChEMBL document CHEMBL1201862, “PubChem BioAssay data set” (2004)
